Results published in patent publication US8840866B2, “Styrylpyridine derivatives and their use for binding and imaging amyloid plaques” (The Trustees of the University of Pennsylvania, priority 2006, dated 2014).

Assay: Organ distribution in normal ICR mice after iv injection of radiolabeled tracer
Format: in vivo
Conditions: [125I]-labeled tracer
Description: The mice (n=3 for each time point) were sacrificed by cervical dislocation at designated time-points post injection. The organs of interest were removed and weighed, and the radioactivity was counted with an automatic gamma counter. The percentage dose per organ was calculated by a comparison of the tissue counts to suitably diluted aliquots of the injected material. The total activity of the blood was calculated under the assumption that it is 7% of the total body weight. The % dose/g of samples was calculated by comparing the sample counts with the count of the diluted initial dose.

Compound	Biodistribution: Blood (2 min)	Biodistribution: Brain (2 min)	Biodistribution: Heart (2 min)	Biodistribution: Kidney (2 min)	Biodistribution: Liver (2 min)	Biodistribution: Lung (2 min)	Biodistribution: Muscle (2 min)	Biodistribution: Skin (2 min)	Biodistribution: Spleen (2 min)	Biodistribution: Thyroid (2 min)	Biodistribution: Blood (30 min)	Biodistribution: Brain (30 min)	Biodistribution: Heart (30 min)	Biodistribution: Kidney (30 min)	Biodistribution: Liver (30 min)	Biodistribution: Lung (30 min)	Biodistribution: Muscle (30 min)	Biodistribution: Skin (30 min)	Biodistribution: Spleen (30 min)	Biodistribution: Thyroid (30 min)	other results
CN(C)c1ccc(/C=C/c2cnc(OCCOCCOCCF)c(I)c2)cc1 [[^125I]13a, (E)-(5-Iodo-6-{2-[2-(2-fluoroethoxy)ethoxy]ethoxy}pyridin-3-yl)-2-(4-dimethylaminophenyl)-ethylene]	2.70 ± 0.58 % dose/g	4.03 ± 0.43 % dose/g	12.76 ± 1.24 % dose/g	16.62 ± 1.96 % dose/g	22.15 ± 4.34 % dose/g	10.08 ± 2.15 % dose/g	0.90 ± 0.20 % dose/g	0.54 ± 0.05 % dose/g	4.47 ± 1.28 % dose/g	3.89 ± 0.67 % dose/g	2.05 ± 0.18 % dose/g	1.93 ± 0.18 % dose/g	1.63 ± 0.03 % dose/g	3.32 ± 0.11 % dose/g	9.54 ± 1.30 % dose/g	2.50 ± 0.14 % dose/g	1.00 ± 0.08 % dose/g	1.47 ± 0.26 % dose/g	1.42 ± 0.05 % dose/g	16.23 ± 11.75 % dose/g	Biodistribution: Blood (1 hr): 1.65 ± 0.45 % dose/g; Biodistribution: Brain (1 hr): 0.68 ± 0.17 % dose/g; Biodistribution: Heart (1 hr): 0.97 ± 0.16 % dose/g; Biodistribution: Kidney (1 hr): 2.30 ± 0.54 % dose/g; Biodistribution: Liver (1 hr): 5.34 ± 2.22 % dose/g; Biodistribution: Lung (1 hr): 1.62 ± 0.46 % dose/g; Biodistribution: Muscle (1 hr): 0.59 ± 0.13 % dose/g; Biodistribution: Skin (1 hr): 1.59 ± 0.68 % dose/g; Biodistribution: Spleen (1 hr): 0.99 ± 0.47 % dose/g; Biodistribution: Thyroid (1 hr): 24.19 ± 8.26 % dose/g; Biodistribution: Blood (2 hr): 1.45 ± 0.41 % dose/g; Biodistribution: Brain (2 hr): 0.26 ± 0.04 % dose/g; Biodistribution: Heart (2 hr): 0.73 ± 0.17 % dose/g; Biodistribution: Kidney (2 hr): 1.71 ± 0.24 % dose/g; Biodistribution: Liver (2 hr): 5.62 ± 1.31 % dose/g; Biodistribution: Lung (2 hr): 1.33 ± 0.39 % dose/g; Biodistribution: Muscle (2 hr): 0.53 ± 0.08 % dose/g; Biodistribution: Skin (2 hr): 1.23 ± 0.41 % dose/g; Biodistribution: Spleen (2 hr): 0.79 ± 0.27 % dose/g; Biodistribution: Thyroid (2 hr): 60.76 ± 6.09 % dose/g
CNc1ccc(/C=C/c2cnc(OCCOCCOCCF)c(I)c2)cc1 [[^125I]13b, (E)-(5-Iodo-6-{2-[2-(2-fluoroethoxy)ethoxy]ethoxy}pyridin-3-yl)-2-(4-methylaminophenyl)-ethylene]	4.37 ± 1.07 % dose/g	6.22 ± 1.01 % dose/g	9.85 ± 1.78 % dose/g	9.03 ± 6.81 % dose/g	26.24 ± 4.47 % dose/g	6.85 ± 0.27 % dose/g	1.04 ± 0.25 % dose/g	1.48 ± 0.07 % dose/g	4.41 ± 1.05 % dose/g	5.74 ± 0.42 % dose/g	3.83 ± 1.11 % dose/g	1.23 ± 0.13 % dose/g	2.54 ± 0.37 % dose/g	3.40 ± 0.76 % dose/g	11.47 ± 2.10 % dose/g	3.01 ± 0.96 % dose/g	1.11 ± 0.34 % dose/g	2.95 ± 0.81 % dose/g	2.49 ± 0.75 % dose/g	24.09 ± 27.44 % dose/g	Biodistribution: Blood (1 hr): 2.88 ± 0.28 % dose/g; Biodistribution: Brain (1 hr): 0.62 ± 0.17 % dose/g; Biodistribution: Heart (1 hr): 1.75 ± 0.26 % dose/g; Biodistribution: Kidney (1 hr): 2.81 ± 0.70 % dose/g; Biodistribution: Liver (1 hr): 7.70 ± 1.22 % dose/g; Biodistribution: Lung (1 hr): 2.37 ± 0.29 % dose/g; Biodistribution: Muscle (1 hr): 0.85 ± 0.06 % dose/g; Biodistribution: Skin (1 hr): 2.46 ± 0.16 % dose/g; Biodistribution: Spleen (1 hr): 1.75 ± 0.33 % dose/g; Biodistribution: Thyroid (1 hr): 38.09 ± 6.37 % dose/g; Biodistribution: Blood (2 hr): 2.21 ± 0.73 % dose/g; Biodistribution: Brain (2 hr): 0.26 ± 0.01 % dose/g; Biodistribution: Heart (2 hr): 1.22 ± 0.28 % dose/g; Biodistribution: Kidney (2 hr): 1.86 ± 0.36 % dose/g; Biodistribution: Liver (2 hr): 6.25 ± 1.79 % dose/g; Biodistribution: Lung (2 hr): 1.85 ± 0.74 % dose/g; Biodistribution: Muscle (2 hr): 0.44 ± 0.19 % dose/g; Biodistribution: Skin (2 hr): 1.32 ± 0.41 % dose/g; Biodistribution: Spleen (2 hr): 1.27 ± 0.24 % dose/g; Biodistribution: Thyroid (2 hr): 215.05 ± 74.59 % dose/g
CN(C)c1ccc(/C=C/c2cnc(OCCO)c(I)c2)cc1 [[^125I]16a, (E)-[5-Iodo-6-(2-hydroxyethoxy)pyridin-3-yl]-2-(4-dimethylaminophenyl)-ethylene]	2.71 ± 0.07 % dose/g	5.43 ± 0.85 % dose/g	10.24 ± 0.45 % dose/g	14.25 ± 1.98 % dose/g	19.12 ± 2.68 % dose/g	9.41 ± 0.56 % dose/g	0.71 ± 0.46 % dose/g	0.46 ± 0.13 % dose/g	4.40 ± 1.89 % dose/g	4.15 ± 0.43 % dose/g	2.24 ± 0.38 % dose/g	3.56 ± 0.32 % dose/g	1.93 ± 0.27 % dose/g	4.19 ± 0.45 % dose/g	12.38 ± 1.29 % dose/g	3.02 ± 0.38 % dose/g	1.05 ± 0.20 % dose/g	1.18 ± 0.26 % dose/g	1.94 ± 0.19 % dose/g	11.21 ± 7.88 % dose/g	Biodistribution: Blood (1 hr): 2.18 ± 0.66 % dose/g; Biodistribution: Brain (1 hr): 1.32 ± 0.00 % dose/g; Biodistribution: Heart (1 hr): 1.12 ± 0.02 % dose/g; Biodistribution: Kidney (1 hr): 2.49 ± 0.33 % dose/g; Biodistribution: Liver (1 hr): 6.22 ± 0.96 % dose/g; Biodistribution: Lung (1 hr): 1.98 ± 0.21 % dose/g; Biodistribution: Muscle (1 hr): 0.55 ± 0.03 % dose/g; Biodistribution: Skin (1 hr): 1.16 ± 0.00 % dose/g; Biodistribution: Spleen (1 hr): 1.32 ± 0.10 % dose/g; Biodistribution: Thyroid (1 hr): 59.13 ± 6.26 % dose/g; Biodistribution: Blood (2 hr): 1.01 ± 0.02 % dose/g; Biodistribution: Brain (2 hr): 0.46 ± 0.05 % dose/g; Biodistribution: Heart (2 hr): 0.62 ± 0.12 % dose/g; Biodistribution: Kidney (2 hr): 1.48 ± 0.20 % dose/g; Biodistribution: Liver (2 hr): 4.87 ± 0.46 % dose/g; Biodistribution: Lung (2 hr): 1.00 ± 0.15 % dose/g; Biodistribution: Muscle (2 hr): 0.22 ± 0.04 % dose/g; Biodistribution: Skin (2 hr): 0.40 ± 0.05 % dose/g; Biodistribution: Spleen (2 hr): 0.80 ± 0.11 % dose/g; Biodistribution: Thyroid (2 hr): 24.81 ± 0.62 % dose/g
CNc1ccc(/C=C/c2cnc(OCCO)c(I)c2)cc1 [[^125I]16b, (E)-[5-Iodo-6-(2-hydroxyethoxy)pyridin-3-yl]-2-(4-methylaminophenyl)-ethylene]	4.14 ± 0.41 % dose/g	8.04 ± 0.82 % dose/g	7.16 ± 1.16 % dose/g	11.51 ± 1.48 % dose/g	20.84 ± 2.38 % dose/g	7.43 ± 1.21 % dose/g	1.15 ± 0.38 % dose/g	0.95 ± 0.09 % dose/g	4.08 ± 0.68 % dose/g	6.31 ± 1.59 % dose/g	3.08 ± 0.35 % dose/g	0.88 ± 0.30 % dose/g	1.50 ± 0.18 % dose/g	3.73 ± 0.75 % dose/g	12.57 ± 3.03 % dose/g	2.67 ± 0.46 % dose/g	0.91 ± 0.06 % dose/g	1.86 ± 0.50 % dose/g	1.34 ± 0.29 % dose/g	17.23 ± 14.23 % dose/g	Biodistribution: Blood (1 hr): 1.81 ± 0.56 % dose/g; Biodistribution: Brain (1 hr): 0.26 ± 0.03 % dose/g; Biodistribution: Heart (1 hr): 0.88 ± 0.30 % dose/g; Biodistribution: Kidney (1 hr): 2.16 ± 0.08 % dose/g; Biodistribution: Liver (1 hr): 5.62 ± 0.68 % dose/g; Biodistribution: Lung (1 hr): 1.76 ± 0.32 % dose/g; Biodistribution: Muscle (1 hr): 0.42 ± 0.08 % dose/g; Biodistribution: Skin (1 hr): 1.29 ± 0.51 % dose/g; Biodistribution: Spleen (1 hr): 0.87 ± 0.37 % dose/g; Biodistribution: Thyroid (1 hr): 36.69 ± 37.17 % dose/g; Biodistribution: Blood (2 hr): 1.96 ± 0.14 % dose/g; Biodistribution: Brain (2 hr): 0.15 ± 0.02 % dose/g; Biodistribution: Heart (2 hr): 0.76 ± 0.03 % dose/g; Biodistribution: Kidney (2 hr): 1.53 ± 0.20 % dose/g; Biodistribution: Liver (2 hr): 3.41 ± 0.20 % dose/g; Biodistribution: Lung (2 hr): 1.58 ± 0.10 % dose/g; Biodistribution: Muscle (2 hr): 0.38 ± 0.02 % dose/g; Biodistribution: Skin (2 hr): 1.43 ± 0.10 % dose/g; Biodistribution: Spleen (2 hr): 1.08 ± 0.15 % dose/g; Biodistribution: Thyroid (2 hr): 99.88 ± 69.45 % dose/g
